According to patent US20110039762A1, “TARGETED ANTIMICROBIAL MOIETIES” (C3 JIAN, INC., priority 2009, published 2011):
Entries after “also recorded” stand apart in the source; their conditions may differ. Ends that are not written are not given here.

Columns and labels:
[1] = test system: S. pneumoniae; assay: Kill or inhibit growth/proliferation; morphology, biofilm and growth disruption (Tables 5, 6); assay type: cell-based, Streptococcus pneumoniae; parameters: key: A: Peptide aggregates; B: Less hyphal formation; Clumps; Diffuse clumps and small polyps; F: Diffuse growth; H: Thin; I: Growth inhibition; Microcolony formation; Rippled; Small polyps; Thick; W: Halo formation on top, microlonies on bottom; also: test concentration or dose not given here
[2] = test system: microorganisms (e.g., bacteria, yeasts, fungi); assay: Targeting peptide binding to target microorganisms (Table 3); conditions: preferably 1x PBS; for Target(s): microorganism(s) the targeting peptide binds, peptide binding conducted in aqueous buffers varied by peptide solubility
[3] = test system: microorganisms; assay: Peptides having multiple activities (targeting/binding, antimicrobial, growth or phenotype altering)
Source text: In certain embodiments, peptides described herein can have multiple activities. Thus for example, a peptide can have both binding/targeting activity and antimicrobial activity. Such peptides can be used, e.g., in a chimeric construct, for any or all of these properties. Thus, for example, a peptide designated “B” in Table 8 can be used as a targeting peptide. If it is also designated G or M it can also be used for antimicrobial activity.

| Substance | Organism, effect [1] | Target(s) [2] | Activities [3] | Target(s) (microorganisms bound by the targeting peptide) ([2]; peptide binding in aqueous buffers varied by peptide solubility) |
| --- | --- | --- | --- | --- |
| PF-421: peptide having multiple activities (KHCFEITDKTDVV; Peptide with targeting and/or antimicrobial activity) | S. pneumoniae (H) | C. jeikeium | G B |  |
| PF-423: peptide having multiple activities (AGKKERLLSFREQFLNKNKKK; Peptide with targeting and/or antimicrobial activity) | S. pneumoniae (H) | S. epidermidis; also recorded: M. luteus; also recorded: E. coli; also recorded: S. pneumoniae; also recorded: E. faecalis; also recorded: C. jeikeium | G B |  |
| PF-424: peptide having multiple activities (IAAFVTSRAFSDTVSPI; Peptide with targeting and/or antimicrobial activity) | S. pneumoniae (H) | S. epidermidis and C. albicans and MRSA | G B |  |
| PF-428: peptide having multiple activities (ENEESIF; Peptide with targeting and/or antimicrobial activity) | S. pneumoniae (H) | S. epidermidis; also recorded: C. albicans; also recorded: E. faecalis; also recorded: C. jeikeium | G B |  |
| PF-433: peptide having multiple activities (MRKEFHNVLSSGQLLADKRPARDYNRK; Peptide with targeting and/or antimicrobial activity) | S. pneumoniae (H) | S. epidermidis; also recorded: E. coli; also recorded: S. pneumoniae; also recorded: C. jeikeium | G B |  |
| PF-434: peptide having multiple activities (GQLLADKRPARDYNRK; Peptide with targeting and/or antimicrobial activity) | S. pneumoniae (S) | S. epidermidis; also recorded: M. luteus; also recorded: S. pneumoniae; also recorded: C. jeikeium | G B |  |
| PF-445: peptide having multiple activities (chain 1 ASMTKRLKLAMSKV; chain 2 ASMTKRLKLAMSKV; Peptide with targeting and/or antimicrobial activity) | S. pneumoniae (M) | M. luteus; also recorded: S. pneumoniae; also recorded: C. jeikeium | G B |  |
| PF-446: peptide having multiple activities (chain 1 SGNEKV; chain 2 SGNEKV; Peptide with targeting and/or antimicrobial activity) | S. pneumoniae (H) | M. luteus; also recorded: C. jeikeium | G B |  |
| PF-457: peptide having multiple activities (chain 1 INKYHHIA; chain 2 INKYHHIA; Peptide with targeting and/or antimicrobial activity) | S. pneumoniae (M) | C. albicans; also recorded: S. pneumoniae; also recorded: E. faecalis; also recorded: C. jeikeium | G B |  |
| PF-459: peptide having multiple activities (chain 1 EKRMSFNENQSHRPLL; chain 2 EKRMSFNENQSHRPLL; Peptide with targeting and/or antimicrobial activity) | S. pneumoniae (H) | P. aeruginosa | G B |  |
| PF-462: peptide having multiple activities (chain 1 KNKTDTL; chain 2 KNKTDTL; Peptide with targeting and/or antimicrobial activity) | S. pneumoniae (H) | E. faecalis; also recorded: C. jeikeium | G B |  |
| PF-464: peptide having multiple activities (chain 1 VDMVNRFLGN; chain 2 VDMVNRFLGN; Peptide with targeting and/or antimicrobial activity) | S. pneumoniae (S) | S. epidermidis and C. albicans and MRSA and S. pneumoniae and E. faecalis and C. jeikeium and C. jejuni | G B |  |
| PF-466: peptide having multiple activities (chain 1 VRKSDQ; chain 2 VRKSDQ; Peptide with targeting and/or antimicrobial activity) | S. pneumoniae (H) | MRSA and C. jeikeium and C. jejuni | G B |  |
| PF-467: peptide having multiple activities (chain 1 YYKDYFKEI; chain 2 YYKDYFKEI; Peptide with targeting and/or antimicrobial activity) | S. pneumoniae (H) | MRSA and E. faecalis and C. jeikeium and C. jejuni | G B |  |
| PF-476: peptide having multiple activities (chain 1 WADAQYKLCENCSE; chain 2 WADAQYKLCENCSE; Peptide with targeting and/or antimicrobial activity) | S. pneumoniae (H) | M. luteus; also recorded: P. mirabilis; also recorded: C. albicans; also recorded: S. pneumoniae; also recorded: E. faecalis; also recorded: C. jeikeium; also recorded: C. jejuni | G B |  |
| PF-513: peptide having multiple activities (chain 1 SNGVGLGVGIGSGIRF-NH2; chain 2 SNGVGLGVGIGSGIRF-NH2) | S. pneumoniae (M) | C. albicans | G B |  |
| PF-515: peptide having multiple activities (chain 1 DKSTQDKDIKQAKLLAQELGL-NH2; chain 2 DKSTQDKDIKQAKLLAQELGL-NH2) | S. pneumoniae (H) | S. epidermidis; also recorded: C. albicans; also recorded: S. pneumoniae; also recorded: C. jeikeium | G B |  |
| PF-517: peptide having multiple activities (chain 1 VKPTMTASLISTVC; chain 2 VKPTMTASLISTVC; Peptide with targeting and/or antimicrobial activity) | S. pneumoniae (M) | C. jejuni | G B |  |
| PF-542: peptide having multiple activities (chain 1 KKDNPSLNDQDKNAVLNLLALAK; chain 2 KKDNPSLNDQDKNAVLNLLALAK; Peptide with targeting and/or antimicrobial activity) | S. pneumoniae (H) | C. jeikeium | G B |  |
| PF-573: peptide having multiple activities (chain 1 EKKLIVKLIDSIGKSHEEIVGAG; chain 2 EKKLIVKLIDSIGKSHEEIVGAG; Peptide with targeting and/or antimicrobial activity) | S. pneumoniae (C) | S. epidermidis; also recorded: S. pneumoniae | G B |  |
| PF-625: peptide having multiple activities (SDSTNNARTRKKARDVTTKDIDK; Peptide with targeting and/or antimicrobial activity) | S. pneumoniae (H) |  | G B | S. epidermidis; also recorded: M. luteus; also recorded: S. pneumoniae; also recorded: C. jeikeium |
